Reference: ChEMBL document CHEMBL6153127, “Cyclodepsipeptides and Fatty Acid Lactones from the Freshwater-Derived Fungus, Talaromyces gwangjuensis, and Their Potential as Autophagy Activators” (J Nat Prod, 2025)
Activity calls are given as the source filed them. The rule behind the calls is not given here.

How the values were obtained:
Assay type in all cases: functional, cell-based
HEK293-A [1] = experiment: Cytotoxicity against HEK293-A cells expressing GFP-tagged LC3 assessed as cell viability at 10 uM incubated for 24 hrs by MTT assay; conditions: Homo sapiens
HEK293-A [2] = experiment: Regulation of autophagy in HEK293-A cells expressing GFP-tagged LC3 assessed as increase in green fluorescence at 10 uM incubated for 24 hrs by confocal microscopy; conditions: Homo sapiens
IMR-90 [3] = experiment: Induction of autophagy in human IMR-90 cells expressing GFP-mCherry-tagged LC3 assessed as increase in red puncta at 10 uM incubated for 24 hrs by DAPI staining based confocal microscopy
IMR-90 [4] = experiment: Induction of autophagic flux in human IMR-90 cells expressing GFP-mCherry-tagged LC3 assessed as accumulation of LC3B-II incubated for 6 hrs in presence of chloroquine by Western blot analysis; conditions: dose 1-20 µM

SMILES | Activity (HEK293-A [1]) | Activity (HEK293-A [2]) | Activity (IMR-90 [3]) | Activity (IMR-90 [4])
CCCCCCCC[C@@H](C)[C@@H]1OC(=O)[C@H](CO)NC(=O)[C@H](C(=O)c2c[nH]c3ccccc23)NC(=O)[C@@H](CCC(=O)O)NC(=O)[C@H]1C | inactive | Active |  | 
CCCCCCCC[C@@H]1COC(=O)[C@H](CO)NC(=O)[C@H](C(=O)c2c[nH]c3ccccc23)NC(=O)[C@@H](CCC(=O)O)NC(=O)[C@@H](C)[C@H]1O | inactive | Active |  | 
CCCCCCCCCCCC[C@H](O)[C@]1(O)[C@@H](COC)C(=O)O[C@H]1C(=O)O | inactive |  |  | 
CCCCCCCCCC[C@H](O)C1=C(COCC)C(=O)OC1 | inactive |  |  | 
CCCCCCCC[C@@H](COC(C)=O)[C@@H]1OC(=O)[C@H](CO)NC(=O)[C@H](C(=O)c2c[nH]c3ccccc23)NC(=O)[C@@H](CCC(=O)OCC)NC(=O)[C@H]1C | inactive | Active |  | 
CCCCCCCC[C@@H](C)[C@@H]1OC(=O)[C@H](CO)NC(=O)/C(=C/c2c[nH]c3ccccc23)NC(=O)[C@@H](CCC(=O)O)NC(=O)[C@H]1C | inactive | Active | Active | 
C=C1C(=O)O[C@@H](C(=O)O)[C@@H]1CCCCCCCCCCC | Active |  |  | 
C=C1C(=O)O[C@H](CCCCCCCCCC)[C@H]1[C@@H](O)C(=O)OCC | inactive |  |  | 
CCCCCCCC[C@@H](C)[C@@H]1OC(=O)[C@H](CO)NC(=O)[C@H](Cc2c[nH]c3ccccc23)NC(=O)[C@@H](CCC(=O)O)NC(=O)[C@H]1C | inactive | Active | Active | 
CCCCCCCC[C@@H](COC(C)=O)[C@@H]1OC(=O)[C@H](CO)NC(=O)[C@H](C(=O)c2c[nH]c3ccccc23)NC(=O)[C@@H](CCC(=O)O)NC(=O)[C@H]1C | inactive | Active | Active | Dose-dependent-effect
CCCCCCCC[C@@H](C)[C@@H]1OC(=O)[C@H](CO)NC(=O)[C@H](C(=O)c2c[nH]c3ccccc23)NC(=O)[C@@H](CCC(=O)OCC)NC(=O)[C@H]1C | inactive | Active |  | 
O=C(c1c[nH]c2ccccc12)C(O)CO (stereo not drawn) | inactive |  |  | 
